In patent US7772235B2, “mGluR5 modulators” (Astrazeneca AB, priority 2006, dated 2010):
Values joined by “and” are separate entries in the source; they are usually repeats but may differ in a detail not shown here. Identical values can stand only once.

Target: T1, human mGluR5d (Homo sapiens, UniProt P41594)
T1 construct: expressed in transfected cells
Assay: FLIPR assay of mGluR5 antagonism (intracellular calcium mobilization)
Type: cell-based
Conditions: cells expressing human mGluR5d
From the text: The properties of the compounds of the invention can be analyzed using standard assays for pharmacological activity. Examples of glutamate receptor assays are well known in the art as described in for example Aramori et al., Neuron 8:757 (1992), Tanabe et al., Neuron 8:169 (1992), Miller et al., J. Neuroscience 15: 6103 (1995), Balazs, et al., J. Neurochemistry 69:151 (1997). The methodology described in these publications is incorporated herein by reference. Conveniently, the compounds of the invention can be studied by means of an assay (FLIPR) that measures the mobilization of intracellular calcium, [Ca^2+]i in cells expressing mGluR5 or another assay (IP3) that measures inositol phosphate turnover.
Cells expressing human mGluR5d as described in WO97/05252 are seeded at a density of 100,000 cells per well on collagen coated clear bottom 96-well plates with black sides and experiments are done 24 h following seeding. All assays are done in a buffer containing 127 mM NaCl, 5 mM KCl, 2 mM MgCl2, 0.7 mM NaH2PO4, 2 mM CaCl2, 0.422 mg/mL NaHCO3, 2.4 mg/mL HEPES, 1.8 mg/mL glucose and 1 mg/mL BSA Fraction IV (pH 7.4). Cell cultures in the 96-well plates are loaded for 60 minutes in the above mentioned buffer containing 4 μM of the acetoxymethyl ester form of the fluorescent calcium indicator fluo-3 (Molecular Probes, Eugene, Oreg.) in 0.01% pluronic acid (a proprietary, non-ionic surfactant polyol—CAS Number 9003-11-6). Following the loading period the fluo-3 buffer is removed and replaced with fresh assay buffer. FLIPR experiments are done using a laser setting of 0.800 W and a 0.4 second CCD camera shutter speed with excitation and emission wavelengths of 488 nm and 562 nm, respectively. Each experiment is initiated with 160 μl of buffer present in each well of the cell plate. A 40 μl addition from the antagonist plate was followed by a 50 μL addition from the agonist plate. A 30 minute interval separates the antagonist and agonist additions. The fluorescence signal is sampled 50 times at 1 second intervals followed by 3 samples at 5 second intervals immediately after each of the two additions. Responses are measured as the difference between the peak height of the response to agonist, less the background fluorescence within the sample period. IC50 determinations are made using a linear least squares fitting program.

T1 sequence (P41594 21-942 isoform P41594-3 limits assumed): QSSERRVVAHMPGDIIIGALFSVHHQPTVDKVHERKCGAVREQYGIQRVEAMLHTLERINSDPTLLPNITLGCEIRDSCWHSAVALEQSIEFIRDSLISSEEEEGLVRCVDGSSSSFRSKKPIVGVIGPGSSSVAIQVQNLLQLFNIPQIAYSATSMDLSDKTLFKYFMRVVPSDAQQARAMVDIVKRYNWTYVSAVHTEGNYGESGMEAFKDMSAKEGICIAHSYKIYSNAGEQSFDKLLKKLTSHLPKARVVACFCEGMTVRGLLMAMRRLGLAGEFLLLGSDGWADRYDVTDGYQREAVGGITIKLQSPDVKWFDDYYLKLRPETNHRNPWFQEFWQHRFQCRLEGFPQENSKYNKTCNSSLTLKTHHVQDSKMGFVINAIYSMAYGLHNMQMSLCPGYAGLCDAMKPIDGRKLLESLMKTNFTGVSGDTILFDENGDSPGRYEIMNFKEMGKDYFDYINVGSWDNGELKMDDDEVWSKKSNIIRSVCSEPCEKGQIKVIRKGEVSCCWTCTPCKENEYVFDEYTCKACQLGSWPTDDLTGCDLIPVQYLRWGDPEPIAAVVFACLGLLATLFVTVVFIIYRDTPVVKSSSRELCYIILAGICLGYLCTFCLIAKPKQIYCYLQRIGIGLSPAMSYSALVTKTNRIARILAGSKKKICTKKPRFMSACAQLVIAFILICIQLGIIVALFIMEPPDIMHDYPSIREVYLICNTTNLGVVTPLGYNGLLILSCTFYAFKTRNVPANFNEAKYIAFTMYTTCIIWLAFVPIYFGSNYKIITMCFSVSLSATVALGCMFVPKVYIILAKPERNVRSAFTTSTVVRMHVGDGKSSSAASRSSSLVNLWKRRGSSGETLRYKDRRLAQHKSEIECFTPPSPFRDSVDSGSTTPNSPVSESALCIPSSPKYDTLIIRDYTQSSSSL

IC50 | SMILES
10 nM | C[C@@H](Oc1nnc(-c2cc[nH]c(=O)c2)n1C)c1cc(-c2cccc(Cl)c2)on1 [Example 37.3, 4-(5-{(1R)-1-[5-(3-Chlorophenyl)isoxazol-3-yl]ethoxy}-4-methyl-4H-1,2,4-triazol-3-yl)pyridin-2(1H)-one]
7 nM | Cc1cccc(-n2nnc([C@@H](C)Oc3nnc(-c4cn[nH]c(=O)c4)n3C)n2)c1 [Example 38.6, 5-(4-Methyl-5-{(1R)-1-[2-(3-methylphenyl)-2H-tetrazol-5-yl]ethoxy}-4H-1,2,4-triazol-3-yl)pyridazin-3(2H)-one]
19 nM | C[C@@H](Oc1nnc(-c2ccn(C)c(=O)c2)n1C)c1cc(-c2cccc(Cl)c2)on1 [Example 36.1, 4-(5-{(1R)-1-[5-(3-Chlorophenyl)isoxazol-3-yl]ethoxy}-4-methyl-4H-1,2,4-triazol-3-yl)-1-methylpyridin-2(1H)-one]
13 nM | C[C@@H](Oc1nnc(-c2cc[nH]c(=O)c2)n1C)c1noc(-c2cccc(Cl)c2)n1 [Example 38.1, 4-(5-{(R)-1-[5-(3-Chloro-phenyl)-[1,2,4]oxadiazol-3-yl]-ethoxy}-4-methyl-4H-[1,2,4]triazol-3-yl)-1H-pyridin-2-one]
> 3000 nM and 1580 nM | Cn1c(OCc2cc(-c3cccc(Cl)c3)on2)nnc1-c1cc[nH]c(=O)c1 [Example 37.2, 4-(5-{[5-(3-chlorophenyl)isoxazol-3-yl]methoxy}-4-methyl-4H-1,2,4-triazol-3-yl)pyridin-2(1H)-one]
20 nM | C[C@@H](Oc1nnc(-c2ccn(C)c(=O)c2)n1C)c1noc(-c2cccc(Cl)c2)n1 [Example 36.2, 4-(5-{(1R)-1-[5-(3-Chlorophenyl)-1,2,4-oxadiazol-3-yl]ethoxy}-4-methyl-4H-1,2,4-triazol-3-yl)-1-methylpyridin-2(1H)-one]
15 nM | C[C@@H](Oc1nnc(-c2cn[nH]c(=O)c2)n1C)c1noc(-c2cccc(Cl)c2)n1 [Example 38.4, 5-(5-{(1R)-1-[5-(3-Chlorophenyl)-1,2,4-oxadiazol-3-yl]ethoxy}-4-methyl-4H-1,2,4-triazol-3-yl)pyridazin-3(2H)-one]
6 nM | C[C@@H](Oc1nnc(-c2cn[nH]c(=O)c2)n1C)c1nnn(-c2cccc(Cl)c2)n1 [Example 38.3, 5-(5-{(1R)-1-[2-(3-Chlorophenyl)-2H-tetrazol-5-yl]ethoxy}-4-methyl-4H-1,2,4-triazol-3-yl)pyridazin-3(2H)-one]
9 nM | C[C@@H](Oc1nnc(-c2cc[nH]c(=O)c2)n1C)c1nnn(-c2cccc(Cl)c2)n1 [Example 38.2, 4-(5-{(1R)-1-[2-(3-Chlorophenyl)-2H-tetrazol-5-yl]ethoxy}-4-methyl-4H-1,2,4-triazol-3-yl)pyridin-2(1H)-one]
12 nM | Cc1cccc(-c2cc([C@@H](C)Oc3nnc(-c4cn[nH]c(=O)c4)n3C)no2)c1 [Example 38.7, 5-(4-Methyl-5-{(1R)-1-[5-(3-methylphenyl)isoxazol-3-yl]ethoxy}-4H-1,2,4-triazol-3-yl)pyridazin-3(2H)-one]
8 nM | C[C@@H](Oc1nnc(-c2cn[nH]c(=O)c2)n1C)c1cc(-c2cccc(Cl)c2)on1 [Example 38.5, 5-(5-{(1R)-1-[5-(3-Chlorophenyl)isoxazol-3-yl]ethoxy}-4-methyl-4H-1,2,4-triazol-3-yl)pyridazin-3(2H)-one]

Test system: not listed separately
Assay: Determination of brain to plasma ratio (B/P ratio) in rat
Type: in vivo, female Sprague Dawley rats
Conditions: female, Sprague-Dawley, read-out: B/P Ratio (drug in brain over drug in plasma)
Procedure: Brain to plasma ratios are estimated in female Sprague Dawley rats. The compound is dissolved in water or another appropriate vehicle. For determination of brain to plasma ratio the compound is administrated as a subcutaneous, or an intravenous bolus injection, or an intravenous infusion, or an oral administration. At a predetermined time point after the administration a blood sample is taken with cardiac puncture. The rat is terminated by cutting the heart open, and the brain is immediately retained. The blood samples are collected in heparinized tubes and centrifuged within 30 minutes, in order to separate the plasma from the blood cells. The plasma is transferred to 96-well plates and stored at −20° C. until analysis. The brains are divided in half, and each half is placed in a pre-tarred tube and stored at −20° C. until analysis. Prior to the analysis, the brain samples are thawed and 3 mL/g brain tissue of distilled water is added to the tubes. The brain samples are sonicated in an ice bath until the samples are homogenized. Both brain and plasma samples are precipitated with acetonitrile. After centrifugation, the supernatant is diluted with 0.2% formic acid. […] After reconstitution of the residuals the samples are ready for injection onto the HPLC column.

Kp | SMILES
0.02 | C[C@@H](Oc1nnc(-c2cc[nH]c(=O)c2)n1C)c1cc(-c2cccc(Cl)c2)on1 [Example 37.3, 4-(5-{(1R)-1-[5-(3-Chlorophenyl)isoxazol-3-yl]ethoxy}-4-methyl-4H-1,2,4-triazol-3-yl)pyridin-2(1H)-one]
0.8 | C[C@@H](Oc1nnc(-c2ccncc2)n1C)c1cc(-c2cccc(Cl)c2)on1 [reference compound]
